Read-outs that look alike come from different tables or passages of the source.

Here are results for 26 compounds from patent publication US10034861B2 (priority 2016, dated 2018).

What all share (format): biochemical
Experiment [1] concerns the target PDE1B (Homo sapiens (Human), UniProt Q01064). As to the kind of experiment: PDE1 inhibition assay (PDE1B). Particulars: 15 nM tritium labelled cAMP, 1 hr at room temperature, SPA beads. The source says:
(§1) Table 1 lists the IC50 value for inhibition of PDE1 by the compounds of the invention. […] PDE1 assays are described in the Experimental Section.

The target of experiment [2] is PDE1A (Homo sapiens (Human), UniProt P54750). As to the kind of experiment: biochemical.
Excerpt: as §1

The target in experiment [3] is PDE1C (Homo sapiens (Human), UniProt Q14123). As to the kind of experiment: biochemical.
Excerpt: as §1

Where [4] appears, read: 15 nM tritium labelled cAMP, 1 hr at room temperature, SPA beads.

Chain of PDE1C (Q14123 whole entry): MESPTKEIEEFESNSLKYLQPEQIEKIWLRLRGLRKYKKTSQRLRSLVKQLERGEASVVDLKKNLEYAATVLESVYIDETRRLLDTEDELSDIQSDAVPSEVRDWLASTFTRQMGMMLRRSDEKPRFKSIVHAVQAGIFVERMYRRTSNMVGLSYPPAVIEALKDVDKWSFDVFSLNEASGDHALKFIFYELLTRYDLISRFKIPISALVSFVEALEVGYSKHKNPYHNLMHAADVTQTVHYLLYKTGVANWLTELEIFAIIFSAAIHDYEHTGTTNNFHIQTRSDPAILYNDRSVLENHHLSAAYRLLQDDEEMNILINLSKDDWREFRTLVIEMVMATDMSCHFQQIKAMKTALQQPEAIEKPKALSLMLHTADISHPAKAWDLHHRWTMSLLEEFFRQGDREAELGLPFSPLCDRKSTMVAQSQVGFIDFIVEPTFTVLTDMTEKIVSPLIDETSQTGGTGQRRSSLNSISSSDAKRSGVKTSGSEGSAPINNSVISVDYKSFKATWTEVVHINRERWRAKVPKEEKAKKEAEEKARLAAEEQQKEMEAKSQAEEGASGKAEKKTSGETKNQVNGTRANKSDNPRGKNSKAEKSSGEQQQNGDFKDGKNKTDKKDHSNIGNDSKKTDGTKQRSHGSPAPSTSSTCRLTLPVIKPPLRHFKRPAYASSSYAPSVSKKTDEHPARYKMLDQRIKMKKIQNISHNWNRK
Chain of PDE1B (Q01064 whole entry): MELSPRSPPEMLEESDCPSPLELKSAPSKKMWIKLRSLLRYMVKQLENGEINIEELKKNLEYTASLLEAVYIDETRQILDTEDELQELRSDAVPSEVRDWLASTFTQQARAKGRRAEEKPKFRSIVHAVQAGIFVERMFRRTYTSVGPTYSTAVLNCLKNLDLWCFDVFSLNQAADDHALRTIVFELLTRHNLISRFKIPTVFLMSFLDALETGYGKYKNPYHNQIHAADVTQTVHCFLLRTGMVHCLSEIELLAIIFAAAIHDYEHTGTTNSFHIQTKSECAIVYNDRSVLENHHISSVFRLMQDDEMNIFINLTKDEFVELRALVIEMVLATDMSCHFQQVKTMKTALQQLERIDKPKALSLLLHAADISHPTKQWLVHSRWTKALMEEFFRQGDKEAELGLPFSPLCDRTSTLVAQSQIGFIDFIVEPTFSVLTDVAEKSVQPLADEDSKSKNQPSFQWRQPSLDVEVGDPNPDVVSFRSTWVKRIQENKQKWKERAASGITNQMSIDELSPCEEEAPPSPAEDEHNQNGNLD
Chain of PDE1A (P54750 whole entry): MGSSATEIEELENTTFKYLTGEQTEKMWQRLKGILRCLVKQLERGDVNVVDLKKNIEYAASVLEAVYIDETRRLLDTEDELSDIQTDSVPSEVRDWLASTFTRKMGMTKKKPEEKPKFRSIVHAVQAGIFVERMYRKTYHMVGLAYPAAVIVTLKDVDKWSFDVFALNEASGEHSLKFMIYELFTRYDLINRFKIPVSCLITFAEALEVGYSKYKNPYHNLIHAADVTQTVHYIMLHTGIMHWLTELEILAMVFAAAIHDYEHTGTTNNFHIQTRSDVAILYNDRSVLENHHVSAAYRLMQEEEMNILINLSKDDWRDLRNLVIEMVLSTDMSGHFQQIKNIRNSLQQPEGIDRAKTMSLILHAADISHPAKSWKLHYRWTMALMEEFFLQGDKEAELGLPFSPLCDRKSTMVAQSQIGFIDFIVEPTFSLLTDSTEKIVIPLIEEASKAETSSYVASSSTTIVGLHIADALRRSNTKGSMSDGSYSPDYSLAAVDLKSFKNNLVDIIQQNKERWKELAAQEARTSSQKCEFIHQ

The IC50 is the point on the concentration scale where inhibition reaches its midpoint. `CCOc1ncccc1-c1cc(NCc2ccn(C)n2)c2c(n1)c(C)nn2C(C)CC` (single isomer, unassigned) [Example 67, 5-(2-ethoxy-3-pyridyl)-3-methyl-1-[1-methylpropyl]-N-[(1-methylpyrazol-3-yl)methyl]pyrazolo[4,3-b]pyridin-7-amine]: the IC50 was found to be 0.64 nM in experiment [1] (PDE1B, IC50 (nM)); 9.6 nM in experiment [2] (setting [4]); 27 nM in experiment [3] (setting [4]).
As for `CCOc1ncccc1-c1cc(NCc2cc[nH]n2)c2c(n1)c(C)nn2C(C)CC` (single isomer, unassigned) [Example 119, 5-(2-ethoxy-3-pyridyl)-3-methyl-1-[1-methylpropyl]-N-(1H-pyrazol-3-ylmethyl)pyrazolo[4,3-b]pyridin-7-amine], the half-maximal inhibitory concentration (IC50) in experiment [1] (PDE1B, IC50 (nM)) is 0.56 nM; in experiment [3], 29 nM.
As to `CCOc1ncccc1-c1cc(NCc2c[nH]cn2)c2c(n1)c(C)nn2C(C)CC` (single isomer, unassigned) [Example 130, 5-(2-ethoxy-3-pyridyl)-N-(1H-imidazol-4-ylmethyl)-3-methyl-1-[1-methylpropyl]pyrazolo[4,3-b]pyridin-7-amine], the IC50 in experiment [1] (PDE1B, IC50 (nM)) is 0.86 nM; in experiment [2] (setting [4]), 11 nM; in experiment [3] (setting [4]) it was 25 nM.
In experiment [1] (PDE1B, IC50 (nM)), `CCOc1ncccc1-c1cc(NCc2cnc(C)o2)c2c(n1)c(C)nn2C(C)CC` (single isomer, unassigned) [Example 133, 5-(2-ethoxy-3-pyridyl)-3-methyl-N-[(2-methyloxazol-5-yl)methyl]-1-[1-methylpropyl]pyrazolo[4,3-b]pyridin-7-amine] displayed an IC50 of 1.3 nM.
For the compound `CCCOc1ncccc1-c1cc(NCc2ncn(C)n2)c2c(n1)c(C)nn2C(C)CC` (single isomer, unassigned) [Example 134, 3-methyl-1-[1-methylpropyl]-N-[(1-methyl-1,2,4-triazol-3-yl)methyl]-5-(2-propoxy-3-pyridyl)pyrazolo[4,3-b]pyridin-7-amine], the concentration for half-maximal inhibition (IC50) in experiment [1] (PDE1B, IC50 (nM)) turned out to be 0.12 nM; in experiment [2] (setting [4]), 0.96 nM; in experiment [3] (setting [4]), 1.5 nM.
Take `CCOc1ncccc1-c1cc(NCc2cc[nH]n2)c2c(cnn2C(C)CC)n1` (single isomer, unassigned) [Example 136, 5-(2-ethoxy-3-pyridyl)-1-[1-methylpropyl]-N-(1H-pyrazol-3-ylmethyl)pyrazolo[4,3-b]pyridin-7-amine]: the concentration for half-maximal inhibition (IC50) in experiment [1] (PDE1B, IC50 (nM)) came out at 3.2 nM; in experiment [2] (setting [4]), 62 nM; in experiment [3] it was 100 nM.
As for `CCOc1ncccc1-c1cc(NCc2nnc(C)o2)c2c(cnn2C(C)CC)n1` (single isomer, unassigned) [Example 138, 5-(2-ethoxy-3-pyridyl)-N-[(5-methyl-1,3,4-oxadiazol-2-yl)methyl]-1-[1-methylpropyl]pyrazolo[4,3-b]pyridin-7-amine], the concentration for half-maximal inhibition (IC50) in experiment [1] (PDE1B, IC50 (nM)) amounted to 6.8 nM; in experiment [2] (setting [4]), 93 nM; in experiment [3], 180 nM.
For `CCOc1ncccc1-c1cc(NCc2ncn(C)n2)c2c(cnn2C(C)CC)n1` (single isomer, unassigned) [Example 140, 5-(2-ethoxy-3-pyridyl)-1-[1-methylpropyl]-N-[(1-methyl-1,2,4-triazol-3-yl)methyl]pyrazolo[4,3-b]pyridin-7-amine], the IC50 in experiment [1] (PDE1B, IC50 (nM)) came to 1.7 nM; in experiment [2] (setting [4]) it was 32 nM; in experiment [3], 52 nM.
For the compound `CCOc1ncccc1-c1cc(NCc2ncn(C)n2)c2c(cnn2C(C)CC)n1` (single isomer, unassigned) [Example 141, 5-(2-ethoxy-3-pyridyl)-1-[1-methylpropyl]-N-[(1-methyl-1,2,4-triazol-3-yl)methyl]pyrazolo[4,3-b]pyridin-7-amine], the IC50 worked out at 2.2 nM in experiment [1] (PDE1B, IC50 (nM)); 44 nM in experiment [2] (setting [4]); 76 nM in experiment [3].
Regarding `CCOc1ncccc1-c1cc(NCc2nc[nH]n2)c2c(n1)c(C)nn2C(C)CC` (single isomer, unassigned) [Example 144, 5-(2-ethoxy-3-pyridyl)-3-methyl-1-[1-methylpropyl]-N-(1H-1,2,4-triazol-3-ylmethyl)pyrazolo[4,3-b]pyridin-7-amine], the IC50 in experiment [1] (PDE1B, IC50 (nM)) stood at 1.1 nM; in experiment [2] (setting [4]), 14 nM; in experiment [3] (setting [4]), 23 nM.
For the compound `CCOc1ncccc1-c1cc(NCc2cncc(OC)c2)c2c(n1)c(C)nn2C(C)CC` (single isomer, unassigned; enantiomer 2) [Example 125, 5-(2-ethoxy-3-pyridyl)-N-[(5-methoxy-3-pyridyl)methyl]-3-methyl-1-[1-methylpropyl]pyrazolo[4,3-b]pyridin-7-amine, enantiomer 2], in experiment [1] (PDE1B, IC50 (nM)), the IC50 came to 0.32 nM.
`CCOc1ncccc1-c1cc(NCc2nnc(C)o2)c2c(n1)c(C)nn2C(C)C` [Example 1, 5-(2-ethoxypyridin-3-yl)-1-isopropyl-3-methyl-N-((5-methyl-1,3,4-oxadiazol-2-yl)methyl)-1H-pyrazolo[4,3-b]pyridin-7-amine]: the IC50 in experiment [1] (read-out: PDE1B, IC50) was determined as 1.6 nM; in experiment [2] (setting [4]), 18 nM; in experiment [3] (setting [4]), 40 nM.
On to `CCOc1ncccc1-c1cc(NCc2ncc(C)s2)c2c(n1)c(C)nn2C(C)C` [Example 2, 5-(2-ethoxy-3-pyridyl)-1-isopropyl-3-methyl-N-[(5-methylthiazol-2-yl)methyl]pyrazolo[4,3-b]pyridin-7-amine], for which the IC50 is 0.071 nM in experiment [1] (read-out: PDE1B, IC50); 0.46 nM in experiment [2] (setting [4]); 4.9 nM in experiment [3] (setting [4]).
As for `CCOc1ncccc1-c1cc(NCc2cc(C)on2)c2c(n1)c(C)nn2C(C)C` [Example 3, 5-(2-ethoxy-3-pyridyl)-1-isopropyl-3-methyl-N-[(5-methylisoxazol-3-yl)methyl]pyrazolo[4,3-b]pyridin-7-amine], the IC50 in experiment [1] (read-out: PDE1B, IC50) is 0.11 nM; in experiment [2] (setting [4]) it was 0.8 nM; in experiment [3] (setting [4]), 3 nM.
As for `CCOc1ncccc1-c1cc(NCc2cnn(C)n2)c2c(n1)c(C)nn2C(C)C` [Example 5, 5-(2-ethoxy-3-pyridyl)-1-isopropyl-3-methyl-N-[(2-methyltriazol-4-yl)methyl]pyrazolo[4,3-b]pyridin-7-amine], the IC50 turned out to be 1.8 nM in experiment [1] (read-out: PDE1B, IC50); 11 nM in experiment [2] (setting [4]); 28 nM in experiment [3] (setting [4]).
`CCOc1ncccc1-c1cc(NCc2cn(C)nn2)c2c(n1)c(C)nn2C(C)C` [Example 6, 5-(2-ethoxy-3-pyridyl)-1-isopropyl-3-methyl-N-[(1-methyltriazol-4-yl)methyl]pyrazolo[4,3-b]pyridin-7-amine]: the IC50 stood at 0.22 nM in experiment [1] (read-out: PDE1B, IC50); 4.8 nM in experiment [2] (setting [4]); 5.6 nM in experiment [3] (setting [4]).
Consider `CCOc1ncccc1-c1cc(NCc2cn[nH]c2)c2c(n1)c(C)nn2C(C)C` [Example 7, 5-(2-ethoxy-3-pyridyl)-1-isopropyl-3-methyl-N-(1H-pyrazol-4-ylmethyl)pyrazolo[4,3-b]pyridin-7-amine], for which the half-maximal inhibitory concentration (IC50) in experiment [1] (read-out: PDE1B, IC50) came to 1.1 nM; in experiment [2] (setting [4]), 21 nM; in experiment [3] (setting [4]), 37 nM.
`CCOc1ncccc1-c1cc(NCc2nc(C)cs2)c2c(n1)c(C)nn2C(C)C` [Example 29, 5-(2-ethoxypyridin-3-yl)-1-isopropyl-3-methyl-N-((4-methylthiazol-2-yl)methyl)-1H-pyrazolo[4,3-b]pyridin-7-amine]: in experiment [1] (read-out: PDE1B, IC50), the IC50 turned out to be 1.1 nM.
Still for that read-out and setting: to `CCOc1ncccc1-c1cc(NCc2ccc(=O)n(C)c2)c2c(n1)c(C)nn2C(C)C` [Example 45] belongs 0.62 nM.
Turning to `Cc1nn(C(C)C)c2c(NCc3cnn(C)c3)cc(-c3cccn(C)c3=O)nc12` [Example 49, 3-(1-isopropyl-3-methyl-7-(((1-methyl-1H-pyrazol-4-yl)methyl)amino)-1H-pyrazolo[4,3-b]pyridin-5-yl)-1-methylpyridin-2(1H)-one], the IC50 in experiment [1] (read-out: PDE1B, IC50) was determined as 20 nM; in experiment [3] (setting [4]) it was 420 nM.
On to `CCOc1ncccc1-c1cc(NCc2nc(C)co2)c2c(n1)c(C)nn2C(C)C` [Example 50, 5-(2-ethoxypyridin-3-yl)-1-isopropyl-3-methyl-N-((4-methyloxazol-2-yl)methyl)-1H-pyrazolo[4,3-b]pyridin-7-amine 2,2,2-trifluoroacetate], for which the IC50 turned out to be 0.5 nM in experiment [1] (read-out: PDE1B, IC50) and 9 nM in experiment [2] (setting [4]).
Consider `Cc1sccc1-c1cc(NCc2cnn(C)c2)c2c(n1)c(C)nn2C(C)C` [Example 65, 1-isopropyl-3-methyl-N-[(1-methylpyrazol-4-yl)methyl]-5-(2-methyl-3-thienyl)pyrazolo[4,3-b]pyridin-7-amine], for which the 50% inhibitory concentration (IC50) is 1.2 nM in experiment [1] (read-out: PDE1B, IC50) and 7.9 nM in experiment [2] (setting [4]).
Consider `CCOc1ncccc1-c1cc(NCc2nc[nH]n2)c2c(n1)c(C)nn2C(C)C` [Example 98, 5-(2-ethoxy-3-pyridyl)-1-isopropyl-3-methyl-N-(1H-1,2,4-triazol-3-ylmethyl)pyrazolo[4,3-b]pyridin-7-amine], for which the 50% inhibitory concentration (IC50) turned out to be 0.58 nM in experiment [1] (read-out: PDE1B, IC50) and 21 nM in experiment [3] (setting [4]).
With `CCOc1ncccc1-c1cc(NCc2cnn(C(F)F)c2)c2c(n1)c(C)nn2C(C)C` [Example 165, N-[[1-(difluoromethyl)pyrazol-4-yl]methyl]-5-(2-ethoxy-3-pyridyl)-1-isopropyl-3-methyl-pyrazolo[4,3-b]pyridin-7-amine], the IC50 in experiment [1] (PDE1B, IC50 (nM)) was 5.9 nM; in experiment [2], 73 nM.
With `CCOc1ncccc1-c1cc(NCc2cc(CF)on2)c2c(n1)c(C)nn2C(C)C` [Example 166, 5-(2-ethoxy-3-pyridyl)-N-[[5-(fluoromethyl)isoxazol-3-yl]methyl]-1-isopropyl-3-methyl-pyrazolo[4,3-b]pyridin-7-amine], in experiment [1] (read-out: PDE1B, IC50), the IC50 was determined as 0.16 nM.
As to `Cc1nn(C(C)C)c2c(NCc3cnn(C)c3)cc(-c3cccnc3N(C)C)nc12` [Example 201, 5-[2-(dimethylamino)-3-pyridyl]-1-isopropyl-3-methyl-N-[(1-methylpyrazol-4-yl)methyl]pyrazolo[4,3-b]pyridin-7-amine], the half-inhibitory concentration (IC50) in experiment [1] (read-out: PDE1B, IC50) was 230 nM.
